Assay results published in publication PMC6149709, “(−)-Epigallocatechin-3-Gallate Inhibits the Chaperone Activity of Plasmodium falciparum Hsp70 Chaperones and Abrogates Their Association with Functional Partners” (Molecules : A Journal of Synthetic Chemistry and Natural …, 2017).
Read-outs that look alike come from different tables or passages of the source.

How the values were obtained:
P. falciparum 3D7 = test: Antiplasmodial pLDH growth inhibition assay; format: cell-based; details: Plasmodium falciparum
Experimental: P. falciparum 3D7 parasites were grown and maintained in continuous culture, as previously described, with minor modifications. The growth of P. falciparum 3D7-infected erythrocytes subjected to treatment with varying amounts (0, 0.156, 0.3125, 0.625, 1.25, 2.5, and 5 μM) of EGCG was monitored using the P. falciparum lactate dehydrogenase (pLDH) method, as previously described. As a control, Chloroquine, a known antimalarial drug, was used as a positive control in the assay. Serially-diluted EGCG was added to each culture batch. Uninfected erythrocytes that were similarly treated with EGCG were included to cater for possible lysis of erythrocytes exposed to EGCG. A blank consisting of media and EGCG was also set up. P. falciparum 3D7-infected erythrocytes that were not exposed to EGCG treatment were used as the viability control, representing ‘100% growth’. Analysis of the growth inhibition assay data was carried out using GraphPad Prism 6 (San Diego, CA, USA). The assay was repeated three times.

PfHsp70-1 [1] = biological target: T1, PfHsp70-1 (Plasmodium falciparum, UniProt Q8IB24); test: Tryptophan/tyrosine fluorescence, tertiary conformation; details: EGCG 0–5 μM
T1 sequence (Q8IB24 entry or part of it): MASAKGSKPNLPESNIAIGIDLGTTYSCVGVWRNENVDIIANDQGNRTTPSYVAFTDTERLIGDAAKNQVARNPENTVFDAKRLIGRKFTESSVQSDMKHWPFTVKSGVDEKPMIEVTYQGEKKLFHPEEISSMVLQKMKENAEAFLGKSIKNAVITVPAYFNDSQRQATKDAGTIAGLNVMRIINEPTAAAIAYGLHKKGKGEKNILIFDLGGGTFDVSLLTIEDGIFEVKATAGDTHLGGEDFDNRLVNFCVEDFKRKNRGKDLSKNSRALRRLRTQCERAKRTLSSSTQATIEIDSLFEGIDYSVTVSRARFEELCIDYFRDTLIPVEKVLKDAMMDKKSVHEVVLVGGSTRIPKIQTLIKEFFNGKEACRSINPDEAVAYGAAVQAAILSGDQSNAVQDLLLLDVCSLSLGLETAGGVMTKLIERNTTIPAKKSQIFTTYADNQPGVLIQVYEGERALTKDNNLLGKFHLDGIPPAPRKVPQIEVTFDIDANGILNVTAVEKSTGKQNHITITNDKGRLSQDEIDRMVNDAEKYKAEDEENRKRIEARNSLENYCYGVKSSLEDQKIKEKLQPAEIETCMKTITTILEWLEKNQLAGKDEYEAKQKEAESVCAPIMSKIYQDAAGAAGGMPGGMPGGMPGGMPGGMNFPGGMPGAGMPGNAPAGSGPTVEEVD
Experimental: (§1) We further exposed the two proteins to varying amounts (0–5 µM) of EGCG and monitored he perturbation of the tertiary structural conformations of the proteins using both tyrosine and tryptophan fluorescence, as previously described. The respective recombinant protein (PfHsp70-1 of PfHsp70-z) at a final concentration of 0.45 μg/mL was incubated in assay buffer A (25 mM HEPES-KOH pH 7.5, 100 mM KCl, 10 mM MgOAc) at 20 °C either in the absence or presence of variable EGCG levels (0–5 μM). […] Tryptophan fluorescence spectra were recorded between 300 nm and 400 nm after initial excitation at 295 nm using a JASCO FP-6300 spectrofluorometer (Dunmow, UK). The combined fluorescence of tyrosine and tryptophan was monitored after initial excitation at 285 nm. Subsequently, fluorescence was monitored at wavelengths between 300 nm and 400 nm using a JASCO FP-6300 spectrofluorometer. The resultant spectra were averaged for least 15 scans and processed after subtraction of the baseline scan (buffer in which protein was excluded). A control consisting of a buffer containing EGCG, but lacking protein was used to account for baseline fluorescence.

PfHsp70-z [2] = biological target: T2, PfHsp70-z (Plasmodium falciparum, UniProt Q8IC01); test: as above; details: EGCG 0–5 μM
T2 sequence (Q8IC01 entry or part of it): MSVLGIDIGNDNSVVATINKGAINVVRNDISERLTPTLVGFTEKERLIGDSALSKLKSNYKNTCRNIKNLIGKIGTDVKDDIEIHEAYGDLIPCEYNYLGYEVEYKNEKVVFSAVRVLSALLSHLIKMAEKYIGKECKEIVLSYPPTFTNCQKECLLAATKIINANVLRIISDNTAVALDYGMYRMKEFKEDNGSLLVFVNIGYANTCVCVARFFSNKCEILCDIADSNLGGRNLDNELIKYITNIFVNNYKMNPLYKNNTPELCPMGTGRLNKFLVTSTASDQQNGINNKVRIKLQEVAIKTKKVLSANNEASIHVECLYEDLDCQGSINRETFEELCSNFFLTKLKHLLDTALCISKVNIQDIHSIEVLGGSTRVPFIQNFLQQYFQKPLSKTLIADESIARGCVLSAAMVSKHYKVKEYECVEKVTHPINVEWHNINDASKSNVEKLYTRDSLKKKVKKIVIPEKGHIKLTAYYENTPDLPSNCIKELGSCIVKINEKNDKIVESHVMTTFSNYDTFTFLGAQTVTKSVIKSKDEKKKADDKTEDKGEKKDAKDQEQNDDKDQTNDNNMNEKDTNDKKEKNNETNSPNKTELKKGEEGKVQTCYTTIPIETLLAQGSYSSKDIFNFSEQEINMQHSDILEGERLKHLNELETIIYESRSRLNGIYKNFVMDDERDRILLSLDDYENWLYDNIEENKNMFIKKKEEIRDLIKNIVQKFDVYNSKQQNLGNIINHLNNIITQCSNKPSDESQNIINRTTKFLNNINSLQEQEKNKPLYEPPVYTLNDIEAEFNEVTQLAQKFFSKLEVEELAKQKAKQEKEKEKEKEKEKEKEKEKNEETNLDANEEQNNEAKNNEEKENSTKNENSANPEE
Experimental: as §1

PfHsp70-1 [3] = biological target: T1, PfHsp70-1; test: Suppression of heat-induced aggregation of MDH (chaperone function); format: biochemical; details: 48 °C; for effect on chaperone activity (MDH aggregation): 5 mM ADP/ATP
Experimental: (§2) The chaperone function of parasite Hsp70s was investigated by monitoring heat-induced aggregation of a model protein, malate dehydrogenase (MDH) from porcine heart (Sigma-Aldrich), as previously described, with minor modifications. Before conducting the assays, we first established that both purified preparations of PfHsp70-1 and PfHsp70-z were heat-stable at 48 °C. After this, we then investigated the effects of the chaperones (PfHsp70-1/PfHsp70-z) on the heat-induced aggregation of MDH. To determine the effects of EGCG on the chaperone function of the two proteins, the assay was repeated in the presence of 2.5 µM of EGCG. EGCG was used at this concentration (2.5 µM) because this was the lowest concentration at which it inhibited the function of the chaperones. […] For statistical analysis, a one-way ANOVA test was conducted using GraphPad Prism 6 (San Diego, CA, USA).

PfHsp70-z [4] = biological target: T2, PfHsp70-z; test: as above; format: biochemical; details: 48 °C; for effect on chaperone activity (MDH aggregation): 5 mM ADP/ATP
Experimental: as §2

PfHsp70-1 [5] = biological target: T1, PfHsp70-1; test: SPR binding affinity to immobilised PfHsp70-1; details: EGCG vs ATP binding to PfHsp70-1
Experimental: (§3) The binding affinity of EGCG for the two P. falciparum Hsp70s was determined using a Bio-Rad ProteOn XPR36 system (Hercules, CA, USA), as previously described. Briefly, PfHsp70-1, PfHsp70-1NBD, and PfHsp70-z (as ligands) were separately immobilized onto an HTE chip at concentrations of 0.5 μg/mL and 1 μg/mL, respectively, in order to validate the data. […] In order to determine the association of EGCG with the respective ligand, the EGCG stock solution was prepared in deionised water. Aliquots of EGCG were prepared at final concentrations of 0, 125, 250, 500, 1000, and 2000 nM and injected at 100 μL/min into each horizontal channel. Association was allowed for 2 min and dissociation was monitored for 8 min. Data collected was double referenced using a buffer blank (buffer without EGCG) and a channel in which protein was excluded. Steady-state equilibrium constant data were processed and analysed using BioRad ProteOn Manager Version 3.1.0.6 (Hercules, CA, USA) and GE Healthcare Biosciences BIA evaluation Version 4.1.1 software (Uppsala, Sweden).

PfHsp70-z [6] = biological target: T2, PfHsp70-z; test: SPR binding affinity to immobilised PfHsp70-z; details: EGCG vs ATP binding to PfHsp70-z
Experimental: as §3

PfHsp70-1 [7] = biological target: T1, PfHsp70-1; test: Basal ATPase activity, colourimetric Pi release; format: biochemical
Experimental: (§4) The basal ATPase activities of the parasite Hsp70s was assessed by a colourimetric-based method, as previously described. Briefly, 0.4 µM of recombinant proteins (PfHsp70-1/PfHsp70-z) was incubated in buffer HKMD (10 mM HEPES-KOH pH 7.5, 100 mM KCl, 2 mM MgCl2, 0.5 mM DTT) at 37 °C. […] The released inorganic phosphate was detected by adding 1.25% ammonium molybdate and 9% ascorbic acid and monitored using a M3 SpectraMax (Molecular Devices, Sunnyvale, CA, USA) spectrophotometer at 660 nm. To determine the effect of EGCG on the ATPase activity of parasite Hsp70s, the assay was repeated in the presence of varying amounts (0–5 µM) of EGCG.

PfHsp70-z [8] = biological target: T2, PfHsp70-z; test: Basal ATPase activity, colourimetric Pi release; format: biochemical
Experimental: as §4

## CCN(CC)CCCC(C)Nc1ccnc2cc(Cl)ccc12 (stereo not shown) [chloroquine]
P. falciparum 3D7; 3D7, read-out: IC50 parasite growth
  IC50: 0.0085 µM

## O=C(O[C@@H]1Cc2c(O)cc(O)cc2O[C@@H]1c1cc(O)c(O)c(O)c1)c1cc(O)c(O)c(O)c1 [EGCG, (−)-Epigallocatechin-3-gallate]
P. falciparum 3D7; 3D7, blood stages, pLDH, read-out: IC50 parasite growth
  IC50: 2.9 µM
PfHsp70-1 [1]
  shift of peak wavelength, tryptophan and tyrosine fluorescence: red shift
PfHsp70-z [2]
  shift of peak wavelength, tryptophan and tyrosine fluorescence: red shift
PfHsp70-1 [3]; 2.5 µM EGCG
  effect on capability to suppress heat-induced aggregation of MDH: abrogated
PfHsp70-1 [3]; MDH aggregation
  lowest concentration at which it inhibited the function of the chaperones: 2.5 µM
PfHsp70-z [4]; 2.5 µM EGCG
  effect on capability to suppress heat-induced aggregation of MDH: abrogated
PfHsp70-z [4]; MDH aggregation
  lowest concentration at which it inhibited the function of the chaperones: 2.5 µM
PfHsp70-1 [5]
  fold higher affinity than ATP: approximately 10 fold
PfHsp70-z [6]
  fold higher affinity than ATP: approximately 10 fold
PfHsp70-1 [7]
  Ki: 1.72 µM
PfHsp70-1 [7]; EGCG 0.156 μM
  Vmax: 28.22 (±1.5) nmol/min/mg
PfHsp70-1 [7]; EGCG 0.3125 μM
  Vmax: 29.03 (±0.7) nmol/min/mg
PfHsp70-1 [7]; EGCG 0.625 μM
  Vmax: 28.40 (±0.95) nmol/min/mg
PfHsp70-1 [7]; EGCG 1.25 μM
  Vmax: 27.47 (±2.01) nmol/min/mg
PfHsp70-1 [7]; EGCG 2.5 μM
  Vmax: 29.04 (±0.6) nmol/min/mg
PfHsp70-1 [7]; EGCG 5.0 μM
  Vmax: 30.06 (±0.5) nmol/min/mg
PfHsp70-z [8]
  Ki: 2.34 µM
PfHsp70-z [8]; EGCG 0.156 μM
  Vmax: 20.58 (±0.5) nmol/min/mg
PfHsp70-z [8]; EGCG 0.3125 μM
  Vmax: 18.46 (±0.3) nmol/min/mg
PfHsp70-z [8]; EGCG 0.625 μM
  Vmax: 19.66 (±0.5) nmol/min/mg
PfHsp70-z [8]; EGCG 1.25 μM
  Vmax: 21.26 (±0.9) nmol/min/mg
PfHsp70-z [8]; EGCG 2.5 μM
  Vmax: 18.88 (±0.6) nmol/min/mg
PfHsp70-z [8]; EGCG 5.0 μM
  Vmax: 17.57 (±0.3) nmol/min/mg

## Nc1ncnc2c1ncn2[C@@H]1O[C@H](COP(=O)(O)OP(=O)(O)O)[C@@H](O)[C@H]1O [ADP]
PfHsp70-1 [3]
  effect on chaperone activity (MDH aggregation): did not alter the chaperone activity
PfHsp70-z [4]
  effect on chaperone activity (MDH aggregation): did not alter the chaperone activity

## Nc1ncnc2c1ncn2[C@@H]1O[C@H](COP(=O)(O)OP(=O)(O)OP(=O)(O)O)[C@@H](O)[C@H]1O [ATP]
PfHsp70-1 [3]
  effect on chaperone activity (MDH aggregation): did inhibit the activity
PfHsp70-z [4]
  effect on chaperone activity (MDH aggregation): not affecting the activity
